From PubChem BioAssay AID1199 (EPA DSSTox, 2008)
Active and inactive are the calls of the source.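 The calls were made as follows: active = a tumour-causing dose and a tumour site recorded for mice in at least one sex group; inconclusive = only government mouse studies exist and were judged inadequate; inactive = mouse studies exist but none gave tumours.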

Test system: mouse carcinogenicity bioassay, TD50 from CPDB
Assay: DSSTox (CPDBAS) Carcinogenic Potency Database Summary Mouse Bioassay Results
Conditions: not given
Method in brief: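 Chronic long-term mouse cancer bioassays from literature and NCI/NTP, compiled per sex. TD50 is the standardized carcinogenic potency, using the most positive experiment per sex-species; target sites follow author opinion.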

Q: For c1ccc2c(c1)ccc1cc3c(ccc4ccccc43)cc12, which Potency is on record?
A: Its Potency is 0.0211 mmol/kg/day.

Same assay, conditions: TD50_Mouse_Note: TD50 is harmonic mean of more than one positive test; TargetSites_Mouse_Female: clitoral gland; lung

Q: How did the Potency turn out when CCCCN(N)C=O was run?
A: Its Potency is 0.166 mmol/kg/day.

Same assay, conditions: TD50_Mouse_Note: TD50 is harmonic mean of more than one positive test; TargetSites_Mouse_Female: liver

Q: c1ccncc1 was tested. Which Potency did it give?
A: Its Potency is 0.308 mmol/kg/day.

Q: For O=c1cc[nH]c(=S)[nH]1, which Potency is on record?
A: Its Potency is 0.429 mmol/kg/day.

Q: Which Potency does the source give for Cc1c(N)nc(C)c2c1[nH]c1ccccc12 here?
A: The Potency was 0.15 mmol/kg/day.

Q: For Clc1cc2c(c(Cl)c1Cl)Oc1c(cc(Cl)c(Cl)c1Cl)O2, which Potency is on record?
A: The Potency was 3.66e-06 mmol/kg/day.

Q: Which Potency does the source give for Nc1ccc2ccccc2c1 here?
A: The Potency was 0.275 mmol/kg/day.

Same assay, conditions: TD50_Mouse_Note: TD50 is harmonic mean of more than one positive test; TargetSites_Mouse_Female: liver; lung

Q: Which Potency does the source give for ClCCl here?
A: Its Potency is 13 mmol/kg/day.

Same assay, conditions: TD50_Mouse_Note: TD50 is harmonic mean of more than one positive test; TargetSites_Mouse_Female: liver; stomach

Q: How did the Potency turn out when CC(=O)OCc1ccccc1 was run?
A: Its Potency is 9.59 mmol/kg/day.

Same assay, conditions: TD50_Mouse_Note: TD50 is harmonic mean of more than one positive test; TargetSites_Mouse_Female: lung

Q: With N#[N+]c1ccccc1 as the molecule, how does the Potency read?
A: The Potency was 0.0712 mmol/kg/day.

Same assay, conditions: TD50_Mouse_Note: TD50 is harmonic mean of more than one positive test; TargetSites_Mouse_Female: stomach

Q: With O=C1CCO1 as the molecule, how does the Potency read?
A: The Potency was 0.0172 mmol/kg/day.

Same assay, conditions: TD50_Mouse_Note: TD50 is harmonic mean of more than one positive test; TargetSites_Mouse_Female: thyroid gland

Q: COc1ccc(N)cc1N was tested. Which Potency did it give?
A: The Potency was 3.83 mmol/kg/day.

Same assay, conditions: TD50_Mouse_Note: no positive results

Q: How did the outcome turn out when C/C1=C\C=C(\C(C)C)[C@@H](O)C/C(C)=C/CC/C(C)=C/CC1 was run?
A: Its outcome is “inactive; no positive results”.

Same assay, conditions: TD50_Mouse_Note: no positive results; TargetSites_Mouse_Female: NTP bioassay inadequate

Q: For Nc1ccc(NCCO)c([N+](=O)[O-])c1, which outcome is on record?
A: The outcome was “inactive; no positive results”.

Same assay, conditions: TD50_Mouse_Note: no positive results; TargetSites_Mouse_Female: no positive results

Q: CN(C)C(=S)S[Se](SC(=S)N(C)C)(SC(=S)N(C)C)SC(=S)N(C)C was tested. Which outcome did it give?
A: Its outcome is “inactive; no positive results”.

Q: How did the outcome turn out when O=C(O)c1ccncc1 was run?
A: The outcome was “inactive; no positive results”.

Q: With O=C(O)c1[nH]n(-c2ccc(S(=O)(=O)O)cc2)c(=O)c1N=Nc1ccc(S(=O)(=O)O)cc1 as the molecule, how does the outcome read?
A: The outcome was “inactive; no positive results”.

Q: How did the outcome turn out when C/C=C/c1ccc2c(c1)OCO2 was run?
A: Its outcome is “inactive; no positive results”.

Q: CCn1cc(C(=O)O)c(=O)c2ccc(C)nc21 was tested. Which outcome did it give?
A: Its outcome is “inactive; no positive results”.

Q: CC(C)O was tested. Which outcome did it give?
A: Its outcome is “inactive; no positive results”.

Q: Which outcome does the source give for CC(=O)c1ccc(S(=O)(=O)NC(=O)NC2CCCCC2)cc1 here?
A: Its outcome is “inactive; no positive results”.

Q: For Cc1ccc([N+](=O)[O-])cc1, which outcome is on record?
A: Its outcome is “inactive; no positive results”.

Q: For COc1ccc([N+](=O)[O-])cc1N=Nc1c(O)c(C(=O)Nc2cccc([N+](=O)[O-])c2)cc2ccccc12, which outcome is on record?
A: Its outcome is “inactive; no positive results”.

Q: For O, which outcome is on record?
A: Its outcome is “inactive; no positive results”.

Q: Nc1nc(N)nc(-c2ccccc2)n1 was tested. Which outcome did it give?
A: Its outcome is “inactive; no positive results”.

Q: How did the outcome turn out when O=c1[nH]c(=O)n(C2CCCO2)cc1F (centres undefined) was run?
A: The outcome was “inactive; no positive results”.

Q: With COc1c(Cl)c(Cl)c([N+](=O)[O-])c(Cl)c1Cl as the molecule, how does the outcome read?
A: Its outcome is “inactive; no positive results”.

Q: Which outcome does the source give for C=CC here?
A: Its outcome is “inactive; no positive results”.

Q: For C=CCOC(=O)c1ccccc1C(=O)OCC=C, which outcome is on record?
A: Its outcome is “inactive; no positive results”.

Q: How did the outcome turn out when CCOC(=O)CC(SP(=O)(OC)OC)C(=O)OCC (centres undefined) was run?
A: The outcome was “inactive; no positive results”.

Q: CCOP(=S)(OCC)Oc1cc(C)nc(C(C)C)n1 was tested. Which outcome did it give?
A: Its outcome is “inactive; no positive results”.

Q: COc1c2occc2cc2ccc(=O)oc12 was tested. Which outcome did it give?
A: Its outcome is “inactive; no positive results”.

Q: CCCCCc1cc(O)c2c(c1)OC(C)(C)[C@@H]1CCC(C)=C[C@@H]21 was tested. Which outcome did it give?
A: Its outcome is “inactive; no positive results”.

Q: Which outcome does the source give for COc1cc2c(c3oc(=O)c4c(c13)CCC4=O)C1C=COC1O2 (centres undefined) here?
A: The outcome was “inactive; no positive results”.

Q: With Clc1ccc(C(c2ccccc2Cl)C(Cl)Cl)cc1 (centres undefined) as the molecule, how does the outcome read?
A: Its outcome is “inactive; no positive results”.

Q: CCC(C)c1cc([N+](=O)[O-])cc([N+](=O)[O-])c1O (centres undefined) was tested. Which outcome did it give?
A: Its outcome is “inactive; no positive results”.

Q: How did the outcome turn out when Cc1[nH]cnc1CSCCN=C(NC#N)N(C)N=O was run?
A: The outcome was “inactive”.

Q: For CCN(CC)C(=S)SSC(=S)N(CC)CC, which outcome is on record?
A: Its outcome is “inactive; no positive results”.

Q: CC(C)Nc1nc(Cl)nc(NC(C)C)n1 was tested. Which outcome did it give?
A: The outcome was “inactive; no positive results”.

Q: How did the outcome turn out when CCNC(=S)NCC was run?
A: The outcome was “inactive; no positive results”.

Q: CN(C)c1ccccc1 was tested. Which outcome did it give?
A: Its outcome is “inactive; no positive results”.

Q: With O=[N+]([O-])c1cc([N+](=O)[O-])c(Cl)c(Cl)c1Cl as the molecule, how does the outcome read?
A: Its outcome is “inactive; no positive results”.

Q: Which outcome does the source give for O=NO here?
A: The outcome was “inactive; no positive results”.

Same assay, conditions: TD50_Mouse_Note: positive test results only by intraperitoneal or intravenous injection; TD50 is harmonic mean of more than one positive; TargetSites_Mouse_Female: hematopoietic system; lung; nervous system; uterus

Q: With CNNCc1ccc(C(=O)NC(C)C)cc1 as the molecule, how does the Potency read?
A: Its Potency is 0.00216 mmol/kg/day.

Same assay, conditions: TargetSites_Mouse_BothSexes: liver; mammary gland

Q: How did the Potency turn out when COc1cc(/C=N/NC(=O)c2ccncc2)ccc1O was run?
A: The Potency was 0.101 mmol/kg/day.

Same assay, conditions: TargetSites_Mouse_Female: liver

Q: How did the Potency turn out when O=C1NC(=O)C(c2ccccc2)(c2ccccc2)N1 was run?
A: Its Potency is 0.234 mmol/kg/day.

Q: How did the Potency turn out when C=CCc1ccc(OC)cc1 was run?
A: The Potency was 0.35 mmol/kg/day.

Same assay, conditions: TargetSites_Mouse_Female: liver; lung; stomach

Q: With CCCN(CCC)c1c([N+](=O)[O-])cc(C(F)(F)F)cc1[N+](=O)[O-] as the molecule, how does the Potency read?
A: The Potency was 0.984 mmol/kg/day.

Same assay, conditions: TargetSites_Mouse_Female: stomach

Q: Nc1nc(-c2ccc([N+](=O)[O-])o2)cs1 was tested. Which Potency did it give?
A: The Potency was 0.0373 mmol/kg/day.
